The results in this text go back to article PMC5469811, “Identification of GXXXXG motif in Chrysophsin-1 and its implication in the design of analogs with cell-selective antimicrobial and anti-endotoxin activities” (Scientific Reports, 2017).

The subject of assay [1] is Candida albicans (ATCC 10231). Description: microbe, parasite or virus in culture. The following applies: read-out: Minimum inhibitory concentration (MIC). In kind it is cell-based. As to the method:
(§1) The anti- fungal activity of peptides was performed according to the standard micro broth dilution technique as per NCCLS guidelines. These plates were incubated in a moist chamber at 35 °C, and an absorbance at 492 nm was recorded on a VersaMax microplate reader after 48 h for C. albicans ATCC 10231 and C. parapsilosis ATCC 22019 and 72 h for C. neoformans.

In assay [2] the test system is Candida parapsilosis (ATCC 22019). Briefly: microbe, parasite or virus in culture. The class given is cell-based. The conditions noted are these: read-out: Minimum inhibitory concentration (MIC). As to the method:
as §1

Assay [3] has as its system Cryptococcus neoformans. Briefly: microbe, parasite or virus in culture. The class given is cell-based. The following applies: 72 h, read-out: Minimum inhibitory concentration (MIC). As to the method:
as §1

Assay [4] has as its system Sporothrix schenckii (Patient isolates). Description: microbe, parasite or virus in culture. The class given is cell-based. The conditions noted are these: read-out: Minimum inhibitory concentration (MIC).
Assay [5] deals with Bacillus subtilis (ATCC 6633). Description: microbe, parasite or virus in culture. The class given is cell-based. The following applies: read-out: Minimum inhibitory concentration (MIC). As to the method: (§2) Antibacterial assay against various Gram-positive and Gram-negative strains of bacteria was performed by the serial two-fold dilution method according to the previously reported procedure, [36]. The antibacterial assays were repeated thrice and the averages of these MIC values were reported.

The test system of assay [6] is Escherichia coli (ATCC 25922). Description: microbe, parasite or virus in culture. In kind it is cell-based. The conditions noted are these: read-out: Minimum inhibitory concentration (MIC). As to the method: as §2
Assay [7] concerns Escherichia coli (ATCC 9637). Briefly: microbe, parasite or virus in culture. The class given is cell-based. The following applies: read-out: Minimum inhibitory concentration (MIC). As to the method:
as §2

Assay [8] concerns Klebsiella pneumoniae (ATCC 27736). Briefly: microbe, parasite or virus in culture. The following applies: read-out: Minimum inhibitory concentration (MIC). In kind it is cell-based. As to the method: as §2
Assay [9] relates to Pseudomonas aeruginosa (ATCC BAA-427). Briefly: microbe, parasite or virus in culture. In kind it is cell-based. The following applies: read-out: Minimum inhibitory concentration (MIC). As to the method: as §2
In assay [10] the test system is Staphylococcus aureus (ATCC 25923). Briefly: microbe, parasite or virus in culture. The class given is cell-based. The following applies: read-out: Minimum inhibitory concentration (MIC). As to the method:
as §2

Assay [11] relates to Staphylococcus aureus (ATCC 29213). Briefly: microbe, parasite or virus in culture. In kind it is cell-based. The following applies: read-out: Minimum inhibitory concentration (MIC). As to the method: as §2
Assay [12] has as its system Staphylococcus aureus (ATCC 33592) Methicillin resistant Genatmicin resistant. Briefly: microbe, parasite or virus in culture. The class given is cell-based. The conditions noted are these: read-out: Minimum inhibitory concentration (MIC). As to the method:
as §2

Assay [13] has as its system Staphylococcus aureus (ATCC 700698 MRSA). Briefly: microbe, parasite or virus in culture. The class given is cell-based. The following applies: read-out: Minimum inhibitory concentration (MIC). As to the method:
as §2

For assay [14], the system named is Staphylococcus aureus (ATCC 700699 MRSA). Description: microbe, parasite or virus in culture. In kind it is cell-based. The conditions noted are these: read-out: Minimum inhibitory concentration (MIC). As to the method: as §2
For assay [15], the system named is Staphylococcus aureus (BAA-44)MDR. Briefly: microbe, parasite or virus in culture. The class given is cell-based. The conditions noted are these: BAA44; Staphylococcus aureus (BAA-44) MDR; averages of three repeats; read-out: Minimum inhibitory concentration (MIC). As to the method:
as §2

Assay [16] deals with E. coli (ATCC 25922). The class given is cell-based, Escherichia coli. The following applies: ATCC 25922, 1 h. As to the method: (§3) E. coli ATCC25922 was grown to 10^6 CFU/ml in fresh MH broth with various divalent and monovalent salts at their physiological concentrations. Serial dilutions of chrysophsin-1 and its variants prepared with the same MH broth were added to the E. coli ATCC 25922 suspensions. The bacteria were incubated at 37 °C in a shaking incubator for 18 h and the MIC values of individual peptides against E. coli ATCC 25922 were determined. Thermal tolerance of Chrysophsin-1 and its variants was checked by incubating the peptides at 4 °C, 60 °C and 90 °C for 1 h prior to MIC determination. The antibacterial activity in presence of serum was carried out by adding a final concentration of 10% fetal bovine serum in the assay diluents containing 0.4% BSA, 0.02% glacial acetic acid. The subsequent steps in both the experiments were consistent with the MIC determination method.

Assay [17] deals with E. coli ATCC 25922. The class given is cell-based, Escherichia coli. The following applies: ATCC 25922, 18 h. As to the method: as §3
Assay [18] relates to S. aureus (ATCC 25923). The class given is cell-based, Staphylococcus aureus. The conditions noted are these: ATCC 25923, 1 h. As to the method: as §3
The test system of assay [19] is E. coli ATCC 25922. Description: Synergy with conventional antibiotics, checkerboard titration. The class given is cell-based, Escherichia coli. As to the method:
The checkerboard titration method was followed to check the synergy of peptides with other antibiotics. First, 2-fold serial dilutions of the antibiotics and antimicrobial peptides were prepared. Subsequently, 50 μl each of different concentrations of antibiotics and of antimicrobial peptides was mixed and added into 100 μl of log phase bacteria culture in a 96-well plate. The plates were then incubated at 37 °C for 24 h. The fractional inhibitory concentration (FIC) index (FICI) was calculated as follows[39]: FICI=(MICofdrugAincombination)/(MICofdrugAalone)+(MICofdrugBincombination)/(MICofdrugB): FICI < 0.5 is considered to indicate synergy; 0.5 < FICI < 1.0 is considered additive; 1.0 < FICI < 4.0 is considered indifferent; and FICI > 4.0 is considered antagonism.

Where [20] appears, read: ATCC6633, Bacillus subtilis (ATCC 6633), averages of three repeats.
The mark [21] stands for this setting: ATCC25922, Escherichia coli (ATCC 25922), averages of three repeats.
[22] abbreviates: ATCC9637, Escherichia coli (ATCC 9637), averages of three repeats.
Where [23] appears, read: ATCC27736, Klebsiella pneumoniae (ATCC 27736), averages of three repeats.
The mark [24] stands for this setting: ATCCBAA427, Pseudomonas aeruginosa (ATCC BAA-427), averages of three repeats.
The mark [25] stands for this setting: ATCC25923, Staphylococcus aureus (ATCC 25923), averages of three repeats.
Setting [26] is: ATCC29213, Staphylococcus aureus (ATCC 29213), averages of three repeats.
Setting [27] is: ATCC33592, Staphylococcus aureus (ATCC 33592), methicillin and gentamicin resistant, averages of three repeats.
Where [28] appears, read: Staphylococcus aureus (ATCC 700698 MRSA), averages of three repeats.
Setting [29] is: Staphylococcus aureus (ATCC 700699 MRSA), averages of three repeats.

Molecules are shown by their SMILES. Converted amounts (≈) assume the structure as drawn. Like-named read-outs stand apart in the source and are kept apart here. Residues, ends and D or L forms follow the SMILES beside them.

In the case of `OC(Cn1cncn1)(Cn1cncn1)c1ccc(F)cc1F` [Fluconazole, reference compound], the MIC in assay [1] (ATCC10231, Candida albicans (ATCC 10231), NCCLS micro broth dilution, 35 °C, 48 h, absorbance 492 nm) was 3.26 µM (≈ 0.998 µg/mL); in assay [2] (ATCC22019, Candida parapsilosis (ATCC 22019), NCCLS micro broth dilution, 35 °C, 48 h, absorbance 492 nm) it was 6.53 µM (≈ 2 µg/mL); in [3] (Cryptococcus neoformans, NCCLS micro broth dilution, 35 °C, absorbance 492 nm) it was 6.53 µM (≈ 2 µg/mL); in [4] (Sporothrix schenckii (patient isolates), NCCLS micro broth dilution, 35 °C) it was 6.53 µM (≈ 2 µg/mL).
`CNC(C)C1CCC(N)C(OC2C(N)CC(N)C(OC3OCC(C)(O)C(NC)C3O)C2O)O1` (centres unmarked) [Gentamicin, reference compound]: the MIC in assay [5] (setting [20]) was found to be 1.2 µM (≈ 0.573 µg/mL); in [6] (setting [21]), 2.5 µM (≈ 1.19 µg/mL); in assay [7] (setting [22]) it was 5 µM (≈ 2.39 µg/mL); in assay [8] (setting [23]), 1.35 µM (≈ 0.645 µg/mL); in [9] (setting [24]), 1.35 µM (≈ 0.645 µg/mL); in assay [10] (setting [25]), 0.67 µM (≈ 0.32 µg/mL). The MIC was 1.35 µM (≈ 0.645 µg/mL) in [11] (setting [26]); more than 86.8 µM in [12] (setting [27]); more than 86.8 µM in assay [13] (setting [28]); more than 86.8 µM in assay [14] (setting [29]); more than 86.8 µM in [15].
In the case of `CCn1cc(C(=O)O)c(=O)c2cc(F)c(N3CCNCC3)cc21` [Norfloxacin, reference compound], the MIC turned out to be 1.2 µM (≈ 0.383 µg/mL) in assay [5] (setting [20]); 0.3 µM (≈ 0.0958 µg/mL) in [6] (setting [21]); 0.15 µM (≈ 0.0479 µg/mL) in assay [7] (setting [22]); 0.15 µM (≈ 0.0479 µg/mL) in assay [8] (setting [23]); 1.22 µM (≈ 0.39 µg/mL) in [9] (setting [24]); 1.22 µM (≈ 0.39 µg/mL) in assay [10] (setting [25]). In addition, the MIC in assay [11] (setting [26]) was 2.44 µM (≈ 0.779 µg/mL); in [12] (setting [27]) it was 1.22 µM (≈ 0.39 µg/mL); in assay [13] (setting [28]) it was more than 156 µM; in [14] (setting [29]), more than 156 µM; in [15] it was 39.1 µM (≈ 12.5 µg/mL).
On to `CC[C@H](C)[C@H](NC(=O)[C@H](C)NC(=O)CNC(=O)[C@H](CCCCN)NC(=O)[C@@H](NC(=O)[C@H](CC(C)C)NC(=O)[C@H](Cc1c[nH]c2ccccc12)NC(=O)CNC(=O)[C@H](Cc1ccccc1)NC(=O)[C@@H](N)Cc1ccccc1)[C@@H](C)CC)C(=O)N[C@@H](Cc1c[nH]cn1)C(=O)N[C@@H](C)C(=O)NCC(=O)N[C@@H](CCCCN)C(=O)N[C@@H](C)C(=O)N[C@H](C(=O)N[C@@H](Cc1c[nH]cn1)C(=O)N1CCC[C@H]1C(=O)N[C@@H](CC(C)C)C(=O)N[C@H](C(=O)N[C@@H](Cc1c[nH]cn1)C(=O)N[C@@H](CCCNC(=N)N)C(=O)N[C@@H](CCCNC(=N)N)C(=O)N[C@@H](CCCNC(=N)N)C(=O)N[C@@H](Cc1c[nH]cn1)C(N)=O)[C@@H](C)CC)[C@@H](C)CC` [Peptide G18P-Chr-1] (H-FFGWLIKGAIHAGKAIHPLIHRRRH-NH2), for which the MIC is 3 µM (≈ 8.79 µg/mL) in assay [5] (ATCC 6633); 3 µM (≈ 8.79 µg/mL) in [6] (ATCC 25922); 3 µM (≈ 8.79 µg/mL) in assay [7] (ATCC 9637); 13.6 µM (≈ 39.9 µg/mL) in assay [8] (ATCC 27736); 6.8 µM (≈ 19.9 µg/mL) in assay [9] (ATCC BAA-427); 3 µM (≈ 8.79 µg/mL) in [10] (ATCC 25923). The MIC in assay [11] (ATCC 29213) is reported as 6.8 µM (≈ 19.9 µg/mL); in assay [12] (ATCC 33592), 1.6 µM (≈ 4.69 µg/mL); in assay [13] (ATCC 700698) it was 3 µM (≈ 8.79 µg/mL); in [14] (ATCC 700699), 3 µM (≈ 8.79 µg/mL); in assay [1] (ATCC 10231, 48 h), 13.6 µM (≈ 39.9 µg/mL); in assay [2] (ATCC 22019, 48 h), 13.6 µM (≈ 39.9 µg/mL). Besides, the MIC in assay [3] is reported as 13.6 µM (≈ 39.9 µg/mL); in assay [4] (48 h) it was 27.2 µM (≈ 79.7 µg/mL). Besides, the “Antibacterial activity (MIC) after incubating peptide at 4 °C” value in assay [16] and in [18] was 3 µM in each case. In addition, the “Antibacterial activity (MIC) after incubating peptide at 60 °C” value in assay [16] was 8.3 µM; in assay [18], 33 µM. Also, the “Antibacterial activity (MIC) after incubating peptide at 90 °C” value is 17.2 µM in assay [16] and 33 µM in assay [18]. In addition, the “Antibacterial activity (MIC) in the presence of 10% FBS” value in [17] is 17.2 µM. The “Antibacterial activity (MIC) in the presence of FeCl3” value in assay [17] worked out at 4.1 µM. Besides, the “Antibacterial activity (MIC) in the presence of KCl” value in assay [17] was found to be 4.3 µM. Moreover, the “Antibacterial activity (MIC) in the presence of MgCl2” value in assay [17] was found to be 8.6 µM. In addition, the “Antibacterial activity (MIC) in the presence of NH4Cl” value in assay [17] turned out to be 4.3 µM. In addition, the “Antibacterial activity (MIC) in the presence of NaCl” value in [17] was 4.3 µM. Further, in assay [19], the “interaction of peptide with chloramphenicol (by FICI)” value is on record as “additivity”.
